Test: Body weight evolution, apparent toxicity during the efficacy experiment
Format: in vivo, NMRI nude mice
Details: 48.15 μmol/kg i.v. Q1D5; course of experiment 80 days
Procedure: Animal experiments were performed according to ethical guidelines of animal experimentation. The day of the first injection (6 days after the graft), mice were randomized in 7 groups. Mice were treated by intravenous injection in the lateral tail vein at a constant volume of 10 microL/g. Groups were as follows:
During the course of experiment body weight and tumor size were controlled every 2 or 3 days (except weekends). […] Mortality of animals was recorded every day except the weekend.
During the efficacy experiment, body weight was monitored twice weekly. Treatment toxicity was assessed based on clinical signs and body weight evolution.

## CCc1c2c(nc3ccc(OC(=O)N4CCC(N5CCCCC5)CC4)cc13)-c1cc3c(c(=O)n1C2)COC(=O)[C@]3(O)CC [irinotecan, Irinotecan]
  body weight loss: ~20%
